Consider nine compounds from article PMC7577350 (ACS chemical biology, 2013).

Each structure is given as a SMILES string. Like-named read-outs stand apart in the source and are kept apart here. Numbered stars: 1 amine (or outer) side, 2 acyl side, 3 side chain; on linkers, the order of the positions; unused ones are H or OH. Bridge positions count the residues as written; N and C are the ends. Square brackets hold non-standard residues; d marks the D form. Peptide text beside a SMILES is read from it. Nle(6-ylidene) = O=C([C@H](CCCC=[*:3])N[*:1])[*:2]; Gly(pent-4-enyl) = C=CCCC[C@H](N)C(=O)O

Data set [1] addresses T1, HIV-1 IN (Human immunodeficiency virus type 1 group M subtype B, UniProt P04585). Kind of data set: Integrase assay, 3′-end processing reaction. The class given is biochemical.
Data set [2] concerns the target T1, HIV-1 IN. Kind of data set: Integrase assay, strand transfer reaction. Format: biochemical.
Data set [3] deals with HIV-1 (NL4-3 strain). The class given is cell-based. The note with it: read-out: EC50 (μM) p24 assay, MT-4 cells.
Data set [4] deals with HIV-1 (NL4-3 strain). Description: MTT anti-HIV assay. As to conditions: read-out: EC50 (μM) MTT assay; MT-4 cells, HIV-1 NL4-3, Table 3. Format: cell-based.
The nature of data set [5]: MTT cytotoxicity assay. Format: cell-based.
In data set [6] the test system is HIV-1 NL4-3. Description: MT-4 Luc assay. The class given is cell-based. As to conditions: MT-4 Luc cells; for concentrations at which significant anti-HIV activity was shown: luciferase signal.
The mark [7] stands for this setting: CC50 (μM) MTT assay, mock infected MT-4 cells, Table 3.
Where [8] appears, read: both 3′-end processing and strand transfer reactions.
Setting [9] is: CC50 (μM) MTT assay, mock infected MT-4 cells, Table 4.

On to `CC[C@H](C)[C@H](NC(=O)[C@H](C)NC(=O)[C@H](CCC(=O)O)NC(C)=O)C(=O)N[C@H](C(=O)N[C@@H](CCCNC(=N)N)C(=O)N[C@H](C(=O)N[C@@H](CC(C)C)C(=O)N[C@@H](CCC(N)=O)C(=O)N[C@@H](CCC(N)=O)C(=O)N[C@@H](CC(C)C)C(=O)N[C@@H](CC(C)C)C(=O)N[C@@H](Cc1ccccc1)C(=O)N[C@H](C(=O)N[C@@H](Cc1c[nH]cn1)C(=O)N[C@@H](Cc1ccccc1)C(=O)N[C@@H](CCCNC(=N)N)C(=O)N[C@H](C(=O)NCC(N)=O)[C@@H](C)CC)[C@@H](C)CC)[C@@H](C)CC)[C@@H](C)CC` [compound 1], for which the IC50 (usually the concentration that inhibits the measured activity by half) was 2.6 ± 0.2 µM in data set [1] (IC50 3′-end processing, Table 2); 1.62 ± 0.26 µM in data set [1] (IC50 (μM) 3′-end processing, Table 3 batch); 2 ± 0.2 µM in data set [1] (IC50 (μM) 3′-end processing, Table 4 batch); 1.34 ± 0.2 µM in data set [2] (IC50 (μM) strand transfer, Table 3 batch); 2.2 ± 0.2 µM in data set [2] (IC50 (μM) strand transfer, Table 4 batch); 1.1 ± 0.08 µM in data set [2] (IC50 strand transfer, Table 2). Besides, the EC50 – broadly, the midpoint of the concentration-response curve – in data set [3] (HIV-1 NL4-3, Table 3) is above 10 µM; in data set [3] (HIV-1 NL4-3, Table 4) it was above 20 µM; in data set [4], above 10 µM. Besides, in data set [5] (setting [7]), the CC50 (in general, the concentration at which the toxic effect on the cells reaches its halfway point) is above 10 µM. The “anti-HIV activity at concentrations below 10 μM” value in data set [6] (below 10 μM) is on record as “no significant anti-HIV activity”.

On to `CC[C@H](C)[C@H](NC(=O)[C@H](C)NC(=O)[C@H](CCC(=O)O)NC(C)=O)C(=O)N[C@H](C(=O)N[C@@H](CCCNC(=N)N)C(=O)N[C@H](C(=O)N[C@@H](CC(C)C)C(=O)N[C@@H](CCC(N)=O)C(=O)N[C@@H](CCC(N)=O)C(=O)N[C@@H](CC(C)C)C(=O)N[C@@H](CC(C)C)C(=O)N[C@@H](Cc1ccccc1)C(=O)N[C@H](C(=O)N[C@@H](Cc1c[nH]cn1)C(=O)N[C@@H](Cc1ccccc1)C(=O)N[C@@H](CCCNC(=N)N)C(=O)N[C@H](C(=O)NCC(=O)N[C@@H](CCCNC(=N)N)C(=O)N[C@@H](CCCNC(=N)N)C(=O)N[C@@H](CCCNC(=N)N)C(=O)N[C@@H](CCCNC(=N)N)C(=O)N[C@@H](CCCNC(=N)N)C(=O)N[C@@H](CCCNC(=N)N)C(=O)N[C@@H](CCCNC(=N)N)C(=O)N[C@@H](CCCNC(=N)N)C(N)=O)[C@@H](C)CC)[C@@H](C)CC)[C@@H](C)CC)[C@@H](C)CC` [compound 2], for which, in data set [1] (setting [8]), the “inhibitory levels × higher than those of compound 1” value is listed as “approximately 30 ×”. The cytotoxic concentration (CC50) in data set [5] was 5.91 µM. The “concentrations at which significant anti-HIV activity was shown” value in data set [6] is on record as “above 2.5 μM”.

As for `CC[C@H](C)[C@H](NC(=O)[C@H](C)NC(=O)[C@H](CCC(=O)O)NC(C)=O)C(=O)N[C@H]1CCCC=CCCC[C@@H](C(=O)N[C@@H](CCC(N)=O)C(=O)N[C@@H](CC(C)C)C(=O)N[C@@H](CC(C)C)C(=O)N[C@@H](Cc2ccccc2)C(=O)N[C@H](C(=O)N[C@@H](Cc2c[nH]cn2)C(=O)N[C@@H](Cc2ccccc2)C(=O)N[C@@H](CCCNC(=N)N)C(=O)N[C@H](C(=O)NCC(=O)N[C@@H](CCCNC(=N)N)C(=O)N[C@@H](CCCNC(=N)N)C(=O)N[C@@H](CCCNC(=N)N)C(=O)N[C@@H](CCCNC(=N)N)C(=O)N[C@@H](CCCNC(=N)N)C(=O)N[C@@H](CCCNC(=N)N)C(=O)N[C@@H](CCCNC(=N)N)C(=O)N[C@@H](CCCNC(=N)N)C(N)=O)[C@@H](C)CC)[C@@H](C)CC)NC(=O)[C@H](CC(C)C)NC(=O)[C@H]([C@@H](C)CC)NC(=O)[C@H](CCCNC(=N)N)NC1=O` [compound 17] (Ac-EAI[Nle(6-ylidene)]RIL[Nle(6-ylidene)]QLLFIHFRIGRRRRRRRR-NH2; staple 4-8), the results for the CC50 in data set [5] (setting [7]) and in data set [5] (setting [9]) were 7.04 µM and 6.9 µM, respectively. The “concentrations at which significant anti-HIV activity was shown” value in data set [6] is “above 1.25 μM”.

In the case of `CC[C@H](C)[C@H](NC(=O)[C@H](C)NC(=O)[C@H](CCC(=O)O)NC(C)=O)C(=O)N[C@H]1CCCC=CCCC[C@@H](C(=O)N[C@@H](CCC(N)=O)C(=O)N[C@@H](CC(C)C)C(=O)N[C@@H](CC(C)C)C(=O)N[C@@H](Cc2ccccc2)C(=O)N[C@H](C(=O)N[C@@H](Cc2c[nH]cn2)C(=O)N[C@@H](Cc2ccccc2)C(=O)N[C@@H](CCCNC(=N)N)C(=O)N[C@H](C(=O)NCC(=O)N[C@@H](CCCNC(=N)N)C(=O)N[C@@H](CCC(=O)O)C(=O)N[C@@H](CCCNC(=N)N)C(=O)N[C@@H](CCC(=O)O)C(=O)N[C@@H](CCCNC(=N)N)C(=O)N[C@@H](CCC(=O)O)C(=O)N[C@@H](CCCNC(=N)N)C(=O)N[C@@H](CCC(=O)O)C(N)=O)[C@@H](C)CC)[C@@H](C)CC)NC(=O)[C@H](CC(C)C)NC(=O)[C@H]([C@@H](C)CC)NC(=O)[C@H](CCCNC(=N)N)NC1=O` [compound 18] (Ac-EAI[Nle(6-ylidene)]RIL[Nle(6-ylidene)]QLLFIHFRIGRERERERE-NH2; staple 4-8), in data set [5] (setting [7]), the CC50 is above 10 µM. In data set [6], the “concentrations at which significant anti-HIV activity was shown” value is “above 5 μM”.

In data set [5] (setting [7]), `C=CCCC[C@H](NC(=O)[C@H](CC(C)C)NC(=O)[C@@H](NC(=O)[C@H](CCCNC(=N)N)NC(=O)[C@H](CCCC=C)NC(=O)[C@@H](NC(=O)[C@H](C)NC(=O)[C@H](CCC(=O)O)NC(C)=O)[C@@H](C)CC)[C@@H](C)CC)C(=O)N[C@@H](CCC(N)=O)C(=O)N[C@@H](CC(C)C)C(=O)N[C@@H](CC(C)C)C(=O)N[C@@H](Cc1ccccc1)C(=O)N[C@H](C(=O)N[C@@H](Cc1c[nH]cn1)C(=O)N[C@@H](Cc1ccccc1)C(=O)N[C@@H](CCCNC(=N)N)C(=O)N[C@H](C(=O)NCC(=O)N[C@@H](CCCNC(=N)N)C(=O)N[C@@H](CCC(=O)O)C(=O)N[C@@H](CCCNC(=N)N)C(=O)N[C@@H](CCC(=O)O)C(=O)N[C@@H](CCCNC(=N)N)C(=O)N[C@@H](CCC(=O)O)C(=O)N[C@@H](CCCNC(=N)N)C(=O)N[C@@H](CCC(=O)O)C(N)=O)[C@@H](C)CC)[C@@H](C)CC` [compound 19] (Ac-EAI[Gly(pent-4-enyl)]RIL[Gly(pent-4-enyl)]QLLFIHFRIGRERERERE-NH2) displayed a CC50 above 10 µM. The “concentrations at which significant anti-HIV activity was shown” value in data set [6] was 10 µM.

With `CC[C@H](C)[C@H](NC(=O)[C@H](C)NC(=O)[C@H](CCC(=O)O)NC(C)=O)C(=O)N[C@H]1CCCC=CCCC[C@@H](C(=O)N[C@@H](CCC(N)=O)C(=O)N[C@@H](CC(C)C)C(=O)N[C@@H](CC(C)C)C(=O)N[C@@H](Cc2ccccc2)C(=O)N[C@H](C(=O)N[C@@H](Cc2c[nH]cn2)C(=O)N[C@@H](Cc2ccccc2)C(=O)N[C@@H](CCCNC(=N)N)C(=O)N[C@H](C(=O)NCC(=O)N[C@@H](CCCNC(=N)N)C(=O)N[C@@H](CCCNC(=N)N)C(=O)N[C@@H](CCCNC(=N)N)C(=O)N[C@@H](CCCNC(=N)N)C(N)=O)[C@@H](C)CC)[C@@H](C)CC)NC(=O)[C@H](CC(C)C)NC(=O)[C@H]([C@@H](C)CC)NC(=O)[C@H](CCCNC(=N)N)NC1=O` [compound 20] (Ac-EAI[Nle(6-ylidene)]RIL[Nle(6-ylidene)]QLLFIHFRIGRRRR-NH2; staple 4-8), in data set [1] (setting [8]), the “× higher inhibition than compound 6S” value was 3–6 ×. Moreover, the CC50 in data set [5] (setting [9]) is 16 µM.

Turning to `CC[C@H](C)[C@H](NC(=O)[C@H](C)NC(=O)[C@H](CCC(=O)O)NC(C)=O)C(=O)N[C@H]1CCCC=CCCC[C@@H](C(=O)N[C@@H](CCC(N)=O)C(=O)N[C@@H](CC(C)C)C(=O)N[C@@H](CC(C)C)C(=O)N[C@@H](Cc2ccccc2)C(=O)N[C@H](C(=O)N[C@@H](Cc2c[nH]cn2)C(=O)N[C@@H](Cc2ccccc2)C(=O)N[C@@H](CCCNC(=N)N)C(=O)N[C@H](C(=O)NCC(=O)N[C@@H](CCCNC(=N)N)C(=O)N[C@@H](CCCNC(=N)N)C(=O)N[C@@H](CCCNC(=N)N)C(=O)N[C@@H](CCCNC(=N)N)C(=O)N[C@@H](CCCNC(=N)N)C(N)=O)[C@@H](C)CC)[C@@H](C)CC)NC(=O)[C@H](CC(C)C)NC(=O)[C@H]([C@@H](C)CC)NC(=O)[C@H](CCCNC(=N)N)NC1=O` [compound 21] (Ac-EAI[Nle(6-ylidene)]RIL[Nle(6-ylidene)]QLLFIHFRIGRRRRR-NH2; staple 4-8), the “× higher inhibition than compound 6S” value in data set [1] (setting [8]) is given as 3–6 ×. Further, the midpoint of cytotoxicity in data set [5] (setting [9]), the CC50, lay at 15 µM.

For the compound `CC[C@H](C)[C@H](NC(=O)[C@H](C)NC(=O)[C@H](CCC(=O)O)NC(C)=O)C(=O)N[C@H]1CCCC=CCCC[C@@H](C(=O)N[C@@H](CCC(N)=O)C(=O)N[C@@H](CC(C)C)C(=O)N[C@@H](CC(C)C)C(=O)N[C@@H](Cc2ccccc2)C(=O)N[C@H](C(=O)N[C@@H](Cc2c[nH]cn2)C(=O)N[C@@H](Cc2ccccc2)C(=O)N[C@@H](CCCNC(=N)N)C(=O)N[C@H](C(=O)NCC(=O)N[C@@H](CCCNC(=N)N)C(=O)N[C@@H](CCCNC(=N)N)C(=O)N[C@@H](CCCNC(=N)N)C(=O)N[C@@H](CCCNC(=N)N)C(=O)N[C@@H](CCCNC(=N)N)C(=O)N[C@@H](CCCNC(=N)N)C(N)=O)[C@@H](C)CC)[C@@H](C)CC)NC(=O)[C@H](CC(C)C)NC(=O)[C@H]([C@@H](C)CC)NC(=O)[C@H](CCCNC(=N)N)NC1=O` [compound 22] (Ac-EAI[Nle(6-ylidene)]RIL[Nle(6-ylidene)]QLLFIHFRIGRRRRRR-NH2; staple 4-8), the “× higher inhibitory levels than compounds 20 and 21” value in data set [1] (both reactions) came out at 2 ×. Also, the CC50 in data set [5] (setting [9]) worked out at 13 µM.

In data set [5] (setting [9]), `CC[C@H](C)[C@H](NC(=O)[C@H](C)NC(=O)[C@H](CCC(=O)O)NC(C)=O)C(=O)N[C@H]1CCCC=CCCC[C@@H](C(=O)N[C@@H](CCC(N)=O)C(=O)N[C@@H](CC(C)C)C(=O)N[C@@H](CC(C)C)C(=O)N[C@@H](Cc2ccccc2)C(=O)N[C@H](C(=O)N[C@@H](Cc2c[nH]cn2)C(=O)N[C@@H](Cc2ccccc2)C(=O)N[C@@H](CCCNC(=N)N)C(=O)N[C@H](C(=O)NCC(=O)N[C@@H](CCCNC(=N)N)C(=O)N[C@@H](CCCNC(=N)N)C(=O)N[C@@H](CCCNC(=N)N)C(=O)N[C@@H](CCCNC(=N)N)C(=O)N[C@@H](CCCNC(=N)N)C(=O)N[C@@H](CCCNC(=N)N)C(=O)N[C@@H](CCCNC(=N)N)C(N)=O)[C@@H](C)CC)[C@@H](C)CC)NC(=O)[C@H](CC(C)C)NC(=O)[C@H]([C@@H](C)CC)NC(=O)[C@H](CCCNC(=N)N)NC1=O` [compound 23] (Ac-EAI[Nle(6-ylidene)]RIL[Nle(6-ylidene)]QLLFIHFRIGRRRRRRR-NH2; staple 4-8) gave a CC50 of 12 µM.
